Results taken from patent EP4700040A1, “PEPTIDE AND LUMINESCENT COMPLEX CONTAINING SAME” (Shenzhen Loggene Life Science & Technology Co., Ltd., priority 2023, dated 2024).

How the values were obtained:
Format in all cases: biochemical, human
PCT [1] = assay: Luciferase dual-antibody complementary activation assay for PCT detection, clone supernatants, retest with CTZ-h (Example 1); conditions: for Signal-to-noise ratio: RLU antigen+/RLU antigen-, MBP-PCT 3.3 ng/ml, CTZ-h; for PCT+: luminescence signal value with MBP-PCT 3.3 ng/ml, large subunit-rSCFV5 50 nM, supernatant; for PCT+ / PCT-: retest CTZ-h 25 µM, read after 60 s; for PCT-: luminescence signal value, background control PBSAD without PCT
Procedure: In order to improve the signal-to-noise ratio and complementary activity of the luciferase dual-antibody complementary activation assay, a series of complementary luciferase small subunits were prepared in this example. Large subunit-rSCFV5 fusion protein (SEQ ID NO: 87) was kept unchanged, and the small subunit sequence of the rSCFV18-small subunit P114 fusion protein (SEQ ID NO: 88) was modified by semi-randomization to prepare rSCFV18-small subunit mutant fusion proteins. Based on the sequence of small subunit P114, and with reference to the 3D structure of complementary luciferase, computer-aided sequence design was employed to generate a library with a theoretical diversity of 2.49*10^6. Primers were designed for PCR amplification using the plasmid pComb3x of rSCFV18-small subunit P114 fusion protein as a template. Subsequently, an expression vector library was constructed by means of restriction digestion and ligation (SfiI, NheI), and a semi-random amino acid mutation library was introduced into the small subunit position and transformed into HB2151 competent cells, yielding a library capacity of 7.6*10^9. The 100 plates were spread, and 9,500 single clones were picked and inoculated into 600 µL of 2YTA medium, followed by incubation at 37°C with shaking at 250 rpm for 2 h. When the bacterial density reached approximately OD600 = 0.6~1.0, IPTG was then added to a final concentration of 1 mM, and the culture was further incubated at 30°C with shaking at 250 rpm for 20 h. The next day, the bacteria were collected by centrifugation at 4°C, 4,500g for 10min. The supernatant was discarded, and the precipitate was resuspended with 200µl of PBS containing polymyxin B at a final concentration of 20,000 u/ml. The suspension was incubated at room temperature with shaking at 100rpm for 1h, and then centrifuged at 4500g for 10min, and the supernatant was used for the test.
Test Methods: • (1) The concentration of large subunit-rSCFV5 fusion protein was diluted to 50 nM, and 15 µl was added per well; • (2) MBP-PCT fusion protein was diluted to 3.3 ng/ml with PBSAD, and 15 µl was added per well. The background control was PBSAD, and 10 µl was added per well; • (3) HB2151 strain containing expression plasmids with different small subunit were induced by 1 mM of IPTG at 30°C overnight, then treated with polymyxin B for 1.5 h, and centrifuged to collect the supernatant, and 2.5 µl supernatant was added per well; • (4) The above three components were slightly mixed, incubated at 37°C for 7 min, and Obuffer 6.37-3 containing Furimazine at a concentration of 25 µM was added, and after 80 s, the luminescence signal value was detected using a bioluminescence detector; and • (5) Clones with RLU higher than 10,000 and a signal-to-noise ratio (RLU antigen+/RLU antigen-) higher than that of the rSCFV18-small subunit P114 fusion protein were selected for retesting. The substrate was replaced with CTZ-h for retesting. Obuffer 6.37-3 containing CTZ-h at a concentration of 25 µM was added, and after 60 s, the luminescence signal value was detected using a bioluminescence detector.

PCT [2] = assay: Complementation of purified rSCFV18-small subunit mutant fusion protein with large subunit-rSCFV5 fusion protein, PCT gradient (Example 2); conditions: for luminescence value: CTZ-h 25 µM, 20 s; for Signal-to-noise ratio at 1000 pg/ml: PCT 1000 pg/ml versus 0
Procedure: Protein expression and purification of small subunit mutants: The strains containing plasmids of different small subunits inTable 2, prepared in Example 1, were inoculated into 200ml of 2YTA medium and cultured at 37°C with shaking at 250 rpm for about 3h. When the OD600 reached 1.0, IPTG was added to a final concentration of 1mM, and the culture was further incubated at 30°C with shaking at 250rpm for 20h. The culture were centrifuged at 5,000g for 10min, and the precipitate was resuspended with 10ml of PBS, added with polymyxin B to 20,000u/ml. The suspension was inverted and mixed at room temperature for 1h, and centrifuged at 10,000g to collect the supernatant. The rSCFV18-small subunit mutant fusion protein was purified according to the standard procedure for his-tag protein purification using Ni-NTA resin.
In the same tube, the large subunit-rSCFV5 fusion protein was diluted with PBSA to 50 nM; rSCFV18-small subunit mutant fusion protein was diluted to 90 nM, mixed well, and then 22 µl was added per well; the MBP-PCT fusion protein was diluted in 3-fold gradient with PBSAD (in pg/ml), with 8 gradients in total, 10µl was added per well, and the background control was PBSAD and 10 µl was added per well; the plate was mixed with slight shaking and incubated at 37°C for 6 min, 50 µl of Obuffer 6.37-3 containing 25 µM of CTZ-h then was added, and after 20 s, the luminescence value was detected.

PCT [3] = assay: Signal-to-noise ratio and linear range for PCT detection, purified fusion proteins (Example 3); set-up: key to luminescence value: luminescence normalized against the background value; conditions: for Signal-to-noise ratio at 1000 pg/ml: large subunit 100 nM, small subunit fusion 180 nM, CTZ-h 25 µM, 140 s
Procedure: Test Methods: • (1) MBP-PCT protein was diluted with PBSAD in 10-fold gradient starting from 100 ng/ml, with 8 gradients in total, and 10 µl was added per well; • (2) The large subunit-SCFV5 fusion protein was diluted with PBSA to 100 nM, and 10 µl was added per well; • (3) Different rSCFV18-small subunit mutant fusion proteins were diluted with PBSA to 180 nM, and 10 µl of each was added per well; • (4) The plate was mixed slightly and incubated at 37°C for 10 min; and • (5) 50 µl of Obuffer 6.37-3 containing 25 µM of CTZ-h was added, and after 140 s, the luminescence value was detected. The results are shown after normalization against the background value.

PCT [4] = assay: as above; set-up: key: luminescence normalized against the background value; conditions: PCT 3.3 (pg/ml); normalized against the background value
[5] = PCT 0 pg/ml (background control PBSAD)
[6] = PCT 1000 pg/ml, large subunit 50 nM, small subunit fusion 90 nM
[7] = PCT 100 (pg/ml), normalized against the background value
[8] = PCT 1000 (pg/ml), normalized against the background value
[9] = PCT 10000 (pg/ml), normalized against the background value
[10] = PCT 100000 (pg/ml), normalized against the background value

Signal-to-noise ratio (PCT [1]) | PCT+ (PCT [1]) | PCT- (PCT [1]) | signal-to-noise ratios in luciferase dual-antibody complementary activation for PCT detection (PCT [3]; statement in words on Table 3 and Figure 2) | Sequence | luminescence value (PCT [2]; [5]) | luminescence value (PCT [2]; PCT 1.37 pg/ml) | luminescence value (PCT [2]; PCT 4.12 pg/ml) | luminescence value (PCT [2]; PCT 12.35 pg/ml) | luminescence value (PCT [2]; PCT 37.04 pg/ml) | luminescence value (PCT [2]; PCT 111.1 pg/ml) | luminescence value (PCT [2]; PCT 333.3 pg/ml) | Signal-to-noise ratio at 1000 pg/ml (PCT [2]) | luminescence value (PCT [2]; [6]) | luminescence value (PCT [3]; PCT 0, background, normalized) | luminescence value (PCT [3]; [7]) | luminescence value (PCT [3]; [8]) | luminescence value (PCT [3]; [9]) | luminescence value (PCT [3]; [10]) | Signal-to-noise ratio at 1000 pg/ml (PCT [3]) | luminescence value (PCT [4])
48 | 46672 | 953 | higher signal-to-noise ratios | VEGYRLFDRKS [RB073] | 412 | 358 | 475 | 591 | 1013 | 2302 | 5886 | 38.9 | 16026 | 5000 | 12151 | 72352 | 566678 | 1966617 | 14.5 | 5283
12.2 | 5058 | 414 | – | VTGYRLFEEIL [P114, reference compound] | 333 | 398 | 383 | 400 | 435 | 495 | 656 | 1.44 | 1256 | 5000 | 7073 | 18839 | 129750 | 642399 | 3.8 | 4789
